Experimental data published in patent US20060239988A1, “Neuronal regeneration and compound administration methods” (priority 2003, published 2006).

Tests used:
[1] = test system: importin-beta; settings: CHX 10 micrograms/ml, ActD 5 micrograms/ml
Method: Electrophoretic gel autoradiography: In order to evaluate whether importin-beta is synthesized in axons, sciatic nerve segments were incubated for 6 hours in Met/Cys-deficient DMEM medium (Gibco-BRL) containing 1 mCi/ml of [35]S-Met/Cys (Amersham Bioscience), with or without 10 micrograms/ml of the translation inhibitor cycloheximide (CHX, Sigma) or 5 micrograms/ml of the transcription inhibitor actinomycin D (ActD, Sigma), followed by extrusion of the axoplasm into nuclear transport buffer. The extruded axoplasm was immunoprecipitated with anti importin-beta antibody, and the immunoprecipitate was resolved via 10% SDS-PAGE. Following electrophoresis, the gel was dried and analyzed via autoradiography using FujiFilm BAS2500.

[2] = test system: vimentin and peripherin; settings: calpeptin 100 micromolar applied to the nerve by injection
[3] = target: pERK with vimentin (Homo sapiens, UniProt P28482); settings: EGTA 100 millimolar
Method: (§1) Pull-down assays and co-immunoprecipitations: Sciatic nerve axoplasm (500 micrograms) was pre-cleared for 1 hour with 80% protein G-Sepharose (Amersham Bioscience). Following overnight incubation with primary antibody, complexes were incubated on protein-G beads for 2 hours, washed extensively and eluted by boiling in SDS-PAGE sample buffer before loading on gels for Western blot analysis. For co-immunoprecipitation in the presence of competitors, 2 micromolar NLS (SEQ ID NO: 2) or reverse-NLS (SEQ ID NO: 3) peptide was added to the axoplasm for overnight incubation at 4 degrees centigrade. For direct pull-downs, GST-pERK (0.5 microgram) or importin-beta (1 microgram) was equilibrated in PBS or NTB and added to 500 microgram aliquots of axoplasm from different post-lesion times. […] All pull-downs were washed twice with 0.2 molar NaCl in PBS or NTB and twice again with PBS or NTB before elution in SDS-PAGE sample buffer for loading on gels.

[4] = target: pERK (Homo sapiens, UniProt P28482)
Method: (§2) Alkaline phosphatase (AP; 2 units; Roche, Mannheim, Germany) or axoplasm from injured nerve (100 micrograms) was then added for an additional 30 minutes. Complexes were purified over Nickel-NTA-Agarose followed by Western blot analysis for pERK. Alkaline phosphatase activity was verified with the synthetic substrate p-nitrophenyl phosphate (pNPP, Catalog # S0942, Sigma) dissolved in 0.1 molar glycine buffer (0.1 molar glycine, 1 millimolar MgCl2, 1 millimolar ZnCl2; pH 10.4) for a stock solution of 1 mg/ml. […] The yellow hydrolysis product was quantified spectrophotometrically at 405 nm.

[5] = test system: alkaline phosphatase; settings: identical concentrations of vimentin
Method: as §2

[6] = target: importin-beta (Homo sapiens, UniProt Q14974)
Method: GST alone was used as a negative control.
as §1

[7] = target: pERK2 (Homo sapiens, UniProt P28482); settings: in-vitro, increased at calcium up to 1 millimolar
Method: as §1

pERK, sequence (P28482 whole entry): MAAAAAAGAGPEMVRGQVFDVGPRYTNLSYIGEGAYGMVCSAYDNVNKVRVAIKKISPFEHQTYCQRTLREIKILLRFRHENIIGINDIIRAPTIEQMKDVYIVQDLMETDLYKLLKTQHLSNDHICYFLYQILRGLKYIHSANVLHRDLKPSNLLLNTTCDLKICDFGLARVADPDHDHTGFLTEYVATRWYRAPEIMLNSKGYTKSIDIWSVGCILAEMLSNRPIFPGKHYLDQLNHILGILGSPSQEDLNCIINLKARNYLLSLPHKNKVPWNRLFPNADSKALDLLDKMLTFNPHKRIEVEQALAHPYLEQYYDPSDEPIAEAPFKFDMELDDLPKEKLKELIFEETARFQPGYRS
pERK, sequence (Q14974 whole entry partner): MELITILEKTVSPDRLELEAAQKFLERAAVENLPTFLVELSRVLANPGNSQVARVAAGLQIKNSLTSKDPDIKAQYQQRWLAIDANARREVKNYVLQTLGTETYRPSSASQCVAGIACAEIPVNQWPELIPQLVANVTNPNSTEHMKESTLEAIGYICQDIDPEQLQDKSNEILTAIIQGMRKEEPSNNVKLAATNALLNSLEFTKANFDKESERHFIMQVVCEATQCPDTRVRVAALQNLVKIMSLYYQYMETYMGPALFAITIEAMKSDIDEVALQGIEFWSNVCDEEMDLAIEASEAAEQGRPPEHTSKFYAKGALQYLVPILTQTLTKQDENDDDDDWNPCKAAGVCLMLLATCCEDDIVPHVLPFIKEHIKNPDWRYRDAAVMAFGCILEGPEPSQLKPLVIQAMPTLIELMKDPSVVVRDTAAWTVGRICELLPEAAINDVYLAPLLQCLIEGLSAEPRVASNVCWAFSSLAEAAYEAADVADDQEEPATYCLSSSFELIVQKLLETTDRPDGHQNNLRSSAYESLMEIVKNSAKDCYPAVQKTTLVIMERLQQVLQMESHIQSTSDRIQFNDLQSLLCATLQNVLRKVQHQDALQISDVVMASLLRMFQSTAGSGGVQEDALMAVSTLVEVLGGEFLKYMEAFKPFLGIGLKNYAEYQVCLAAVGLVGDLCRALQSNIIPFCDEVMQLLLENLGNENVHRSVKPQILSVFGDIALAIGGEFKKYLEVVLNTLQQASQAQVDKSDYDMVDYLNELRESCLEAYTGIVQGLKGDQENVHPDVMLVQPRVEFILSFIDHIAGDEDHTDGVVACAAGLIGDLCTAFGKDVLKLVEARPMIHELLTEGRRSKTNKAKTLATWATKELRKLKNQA
pERK, sequence (P02544 whole entry partner): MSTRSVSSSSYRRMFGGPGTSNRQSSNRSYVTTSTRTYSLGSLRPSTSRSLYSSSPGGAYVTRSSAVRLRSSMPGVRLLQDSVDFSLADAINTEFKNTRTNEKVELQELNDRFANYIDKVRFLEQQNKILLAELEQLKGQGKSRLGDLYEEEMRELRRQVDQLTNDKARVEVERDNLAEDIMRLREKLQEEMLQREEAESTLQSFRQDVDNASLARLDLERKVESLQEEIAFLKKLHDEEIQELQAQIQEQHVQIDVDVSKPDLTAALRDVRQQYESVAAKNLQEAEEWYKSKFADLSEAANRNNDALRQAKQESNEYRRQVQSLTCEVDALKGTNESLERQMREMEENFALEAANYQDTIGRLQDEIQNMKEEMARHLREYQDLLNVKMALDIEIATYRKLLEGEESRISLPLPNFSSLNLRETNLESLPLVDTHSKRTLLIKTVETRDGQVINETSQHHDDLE
importin-beta (Homo sapiens, UniProt Q14974), sequence (Q14974 whole entry): as the sequence (Q14974 whole entry partner) above
importin-beta (Homo sapiens, UniProt Q14974), sequence (P02544 whole entry partner): as the sequence (P02544 whole entry partner) above
pERK2, sequence (P28482 whole entry): as the sequence (P28482 whole entry) above
pERK2, sequence (P02544 whole entry partner): as the sequence (P02544 whole entry partner) above
pERK with vimentin, sequence (P28482 2-360): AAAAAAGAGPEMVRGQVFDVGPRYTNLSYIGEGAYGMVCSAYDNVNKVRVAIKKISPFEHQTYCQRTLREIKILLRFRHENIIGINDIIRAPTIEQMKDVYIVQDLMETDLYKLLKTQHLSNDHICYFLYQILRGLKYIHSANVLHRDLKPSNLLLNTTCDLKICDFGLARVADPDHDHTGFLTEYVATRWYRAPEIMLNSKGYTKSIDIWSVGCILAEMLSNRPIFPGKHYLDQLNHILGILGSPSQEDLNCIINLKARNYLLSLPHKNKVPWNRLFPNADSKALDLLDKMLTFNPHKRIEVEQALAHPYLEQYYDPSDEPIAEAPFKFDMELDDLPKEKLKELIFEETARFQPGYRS

## C[C@@H]1C[C@@H]([C@H](O)CC2CC(=O)NC(=O)C2)C(=O)[C@@H](C)C1 [CHX, cycloheximide]
[1]
  formation of radioactive importin-beta protein: not formed

## CCCC[C@@H](C=O)NC(=O)[C@H](CC(C)C)NC(=O)OCc1ccccc1 [calpeptin]
[2]
  lower molecular mass bands of vimentin and peripherin: disappeared

## EGTA
[3]
  interaction of GST-pERK with vimentin in axoplasm: blocked

## actinomycin D [ActD]
[1]
  formation of radioactive importin-beta protein: merely reduced

## vimentin
[4]; 2 micrograms vimentin, varied calcium
  calcium dependence of protection of pERK2 from dephosphorylation: calcium dependent manner
[4]; three-fold to six-fold molar ratio to pERK, alkaline phosphatase or axoplasm
  protection of pERK2 from the phosphatases: almost complete protection
[5]
  hydrolysis of p-nitrophenyl phosphate by alkaline phosphatase: no effect
[6]
  effect of changing calcium concentrations on the vimentin-importin-beta interaction: little or no effect
[6]; did not precipitate with GST alone
  pull-down with GST-importin-beta: readily pulled down
[7]
  vimentin binding to pERK2: calcium dependent
